# Laboratory results from patent publication US20110195924A1, “Methods of Inhibiting the Interaction Between S100P and the Receptor for Advanced Glycation End-Products” (priority 2008, published 2011).
# Legend:
# S100P and RAGE = target: T1, S100P and RAGE (Homo sapiens, UniProt P25815); experiment: Co-immunoprecipitation of S100P and RAGE from BxPC-3 cell lysates; format: binding; settings: cromolyn 100 μM
# T1 construct: endogenous in cells; host or cells: BxPC-3 cell lysate
# T1 sequence (P25815 1-95): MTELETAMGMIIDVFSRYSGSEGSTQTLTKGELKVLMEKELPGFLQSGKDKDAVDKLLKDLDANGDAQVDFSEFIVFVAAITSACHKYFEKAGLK
# Description: Receptor for advanced glycation end products (RAGE) was identified in the immunoprecipitates by immunoblotting with a goat polyclonal anti-RAGE antibody and anti-S100P as an internal control. In the lower panel, one representative blot and densitometric analysis (means and 95% confidence intervals [CIs]) of three independent experiments is shown. *P<0.001, versus IP α-S100P without cromolyn.
# For co-immunoprecipitation experiments, BxPC-3 cell lysates were incubated in the absence or presence of cromolyn (100 μM) at 4° C. overnight. S100P was immunoprecipitated using a mouse monoclonal anti-S100P antibody (Transduction Laboratories, San Diego, Calif.) for 6 hours at 4° C. and IgG-immobilized beads (Pierce Biotechnology, Inc. Rockford, Ill.). Antibody-associated proteins were electrophoresed on 10% polyacrylamide gels and electrophoretically transferred to nitrocellulose membranes. Membranes were blocked in PBS/5% milk overnight at 4° C. RAGE was detected using a goat polyclonal anti-RAGE antibody (1:200, Santa Cruz, Santa Cruz, Calif.), and S100P was detected using a goat polyclonal anti-S100P antibody (1:50, R & D systems, Minneapolis, Minn.) by immunoblotting as described in Arumugam, et al., S100P stimulates cell proliferation and survival via receptor for activated glycation end products (RAGE); J. Biol. Chem. 2004 Feb. 13; 279(7):5059-65. Briefly, membranes were incubated in primary antibody for 1 hour at room temperature followed by incubation with horseradish peroxidase-labeled secondary antibody for 30 minutes at room temperature. After a thorough wash in TBS-T buffer (1M Tris-HCL pH 8.3, 3M NaCl, 0.1% Tween-20), antibody-protein complexes were detected by using a chemiluminescent substrate (GE Healthcare Bio-Sciences Corp., Piscataway, N.J.). The intensity of the band was estimated (as density units) using densitometry (GS-250 Molecular Imaging System, Bio-Rad Laboratories, Richmond, Calif.). The experiment was repeated three times. […]
# BxPC-3 cells [1] = experiment: BxPC-3 matrigel invasion assay; format: cell-based; settings: 24 hours; for cells invaded, mean: 0 μM 19.3%
# Description: FIGS. 2A-2D show the effect of cromolyn on pancreatic cancer cell invasion. Panc-1 and BxPC-3 cells were plated in Bio-coat matrigel and control chambers and cultured in serum-free culture media. After 24 hours non-invaded cells in the upper chamber were removed, and cells that invaded onto the lower surface of the membrane were counted from five adjacent fields. […] Data are expressed as the percent invasion through the matrigel matrix and membrane relative to migration through the control membrane. Means and 95% confidence intervals from three independent experiments performed in triplicate are shown. Two-tailed two-sample (unpaired) Student's t-tests were used to determine P values. Panc-1 and BxPC-3 cells were seeded in BIOCOAT matrigel invasion chambers and in control chambers without matrigel (Becton-Dickinson, Bedford, Mass.) according to the manufacturer's protocol. Panc-1 cells were seeded with S100P (100 nM) with or without cromolyn (100 μM), and BxPC-3 cells were seeded with or without cromolyn (1-100 μM). Briefly, 2.0×10^5 cells in 300 μL top solution (serum-free media) were added to each chamber and allowed to invade matrigel for 24 hours at 37° C. in a 5% CO2 atmosphere. The non-invading cells on the upper surface of membrane were removed from the chambers with a cotton swab, and the invading cells on the lower surface of the membrane were fixed and stained using a Diff-Quick stain kit (Becton Dickinson, Bedford, Mass.). After two washes with water, the chambers were allowed to air dry. The numbers of invading cells in five adjacent microscope fields per membrane were counted at 20× magnification to obtain the average number of cells per field. Data are expressed as the percent invasion through the matrigel matrix and membrane relative to the migration through the control membrane. The assays were performed three times.
# BxPC-3 cells [2] = experiment: BxPC-3 cell viability, alone or with gemcitabine; format: cell-based; settings: 72 hours
# Description: BxPC-3 cells were plated at 1.0×10^3 cells/well and treated with 0 μM, 1 μM, 10 μM, and 100 μM of cromolyn or C5 alone or in combination with gemcitabine 1 μM and cell viability was analyzed after 72 hours. Two-tailed two-sample (unpaired) Student's t-tests were used to determine P values. […] BxPC-3 cells were plated at 1.0×10^3 cells/well and treated with either 100 μM of cromolyn or 1 μM C5 alone or in combination with gemcitabine (1 μM) and cell viability was analyzed after 72 hours.
# SKOV3 ovarian cells [3] = experiment: SKOV3 ovarian cell proliferation; format: cell-based; settings: different concentrations; 24, 48, 72 hours
# Description: SKOV3 ovarian cells were cultured for up to three days in the presence of different concentrations of cromolyn, and cell proliferation was analyzed at 24, 48, and 72 hours. *, P<0.05.
# SKOV3 ovarian cells [4] = experiment: SKOV3 ovarian cell viability with taxol; format: cell-based; settings: taxol 5 μM, cromolyn 10 μM, 48 hours
# Description: SKOV3 ovarian cells were plated and treated with taxol (5 μM) either in the presence or absence of cromolyn (10 μM) for 48 hours. Cell viability was analyzed after 48 hours. *, P<0.05.
# SW480 colon cells = experiment: SW480 colon cell proliferation; format: cell-based; settings: cromolyn 100 μM, up to three days
# Description: SW480 colon cells were cultured for up to three days in the presence of cromolyn (100 μM), and cell proliferation was analyzed. *, P<0.05.
smiles,measurement,setting,value
"O=C(O)c1cc(=O)c2c(OCC(O)COc3cccc4oc(C(=O)O)cc(=O)c34)cccc2o1 [cromolyn, disodium 1,3-bis[(2′-carboxylatochromon-5′-yl)oxy]-2-hydroxypropane]","co-immunoprecipitation of S100P and RAGE, difference versus control",S100P and RAGE,25640 density units
same,total amount of S100P immunoprecipitated,S100P and RAGE,no effect
same,"co-immunoprecipitation of S100P and RAGE, mean",S100P and RAGE; control mean 34040,8410 density units
same,"cells invaded, difference versus 0 μM",BxPC-3 cells [1]; cromolyn 10 μM,10.0%
same,"cells invaded, mean",BxPC-3 cells [1]; cromolyn 10 μM,9.3%
same,"cells invaded, difference versus 0 μM",BxPC-3 cells [1]; cromolyn 100 μM,11.7%
same,"cells invaded, mean",BxPC-3 cells [1]; cromolyn 100 μM,7.7%
same,concentration giving the same level of cell reduction in combination with gemcitabine,"BxPC-3 cells [2]; BxPC-3, gemcitabine 1 μM, FIG. 10",100 µM
same,BxPC-3 cell viability,BxPC-3 cells [2]; alone and in conjunction with gemcitabine 1 μM,inhibit
same,growth of SKOV3 cells,SKOV3 ovarian cells [3],reduced the growth
same,cell killing effect of taxol on ovarian cancer cells,SKOV3 ovarian cells [4],increased the cell killing effect of taxol
same,growth of SW480 cells,SW480 colon cells,reduced growth
